From patent US20240287549A1, “METHODS AND COMPOSITIONS FOR EFFICIENT PRODUCTION OF BIOFUELS AND BIOPLASTICS FROM TOXIC FEEDSTOCKS” (Massachusetts Institute of Technology, priority 2021, published 2024)

How the values were obtained:
yeast [1] = details: previously established (ref. 16); cited from earlier work
[2] = test system: prototrophic wildtype (WT) strain FY4/5; experiment: Constituent toxicity: ethanol titer of high-gravity fermentation in YSC with single inhibitors; format: cell-based, Saccharomyces cerevisiae; details: for effect of KCl alone on ethanol titer: plus 50 mM KCl only; for additional boost of ethanol production by K+/pH adjustment: 50 mM KCl and NH4OH to pH 6 vs unadjusted
Protocol: To systematically characterize the impact of these constituent toxicities, ethanol production was assessed in yeast synthetic complete medium (YSC) with the 3 inhibitors added individually at equimolar concentration. As a completely chemically-defined formulation with trace vitamins, minerals, and amino acids, YSC lacks the undefined extracts contained in “rich” media that could supply unknown components to boost or hinder tolerance. […] For the constituent toxicity studies, prototrophic strain FY4/5 was expanded in a starter culture of YSC containing 150 g/L glucose and grown overnight to approximately OD600=10. To mimic industrial high cell density conditions, 100 OD600 units of cells per fermentation were harvested, washed with an equal volume of room temperature distilled and deionized water, and cell pellets resuspended in 4 mL media for a production cell density of approximately OD600=25 (9.9 g DCW/L). Fermentation media consisted of 250 g/L glucose in YSC and were supplemented with (left to right in FIG. 1A) 6 mM NH4Cl, 50/6 mM KCl/NH4OH, 100/128 mM acetic acid/NH4Cl, 100/50/128 mM acetic acid/KCl/NH4Cl, 100/50/128 mM acetic acid/KCl/NH4OH, 100/11 mM furfural/NHCl, 100/50/11 mM furfural/KCl/NH4OH, 100/7 mM 2-furanmethanol (FF—OH)/NHCl, 100/50/7 mM FF—OH/KCl/NH4Cl, 100/50/7 mM FF—OH/KCl/NHOH, 100/7 mM 5-hydroxymethyl-furfural (HMF)/NH4Cl, 100/50/7 mM HMF/KCl/NHOH, 100/7 mM furan-2,5-dimethanol (HMF-OH)/NH4Cl, 100/50/7 mM HMF-OH/KCl/NH4Cl, or 100/50/7 mM HMF-OH/KCl/NH4OH.
Inhibitor supplementation for the additionally screened conditions in FIGS. 2A-2C were: 50/60 mM acetic acid/NHCl, 50/50/60 mM acetic acid/KCl/NH4OH, 150/180 mM acetic acid/NH4Cl, 150/50/180 mM acetic acid/KCl/NH4OH, 50/9 mM furfural/NH4Cl, 50/50/9 mM furfural/KCl/NH4OH, 50/6 mM FF—OH/NHCl, 50/50/6 mM FF—OH/KCl/NH4OH, 150/15 mM furfural/NH4Cl. 150/50/15 mM furfural/KCl/NH4OH, 150/9 mM FF—OH/NH4Cl, 150/50/9 mM FF—OH/KCl/NH4OH, 50/6 mM HMF/NHCl, 50/50/6 mM HMF/KCl/NH4OH, 50/6 mM HMF-OH/NH4Cl, 50/50/6 mM HMF-OH/KCl/NH4OH, 150/11 mM HMF/NH4Cl, 150/50/11 mM HMF/KCl/NH4OH, 150/9 mM HMF-OH/NHCl, or 150/50/9 mM HMF-OH/KCl/NH4OH. The “/” notation is used for visual abbreviation but indicates the addition of all components during preparation. […] Furfural (Sigma-Aldrich #185914), HMF (Sigma-Aldrich #H40807), FF—OH (Sigma-Aldrich #W249106), and HMF-OH (Santa Cruz Biotechnology #sc-210242, scbt.com) were added directly to media in their supplier, concentrated forms to minimize the addition of volume. […] Fermentation samples of 550 μL were harvested after 48 h, cells removed by centrifugation (16,870×g, 2 min), and supernatants 0.45 μm syringe-filtered (Fisher Scientific #50-109-8735, fishersci.com) into glass HPLC vials and stored at 4° C. until analysis. Similarly, pre-inoculation fermentation media were syringe-filtered and diluted 1:5 in water for HPLC verification of starting glucose and inhibitor concentrations.
Analytes were separated isocratically in 5 mM sulfuric acid at 65° C. using a flow rate of […]. Under these conditions, retention times were approximately as follows: glucose 9.2 min, xylose 9.9 min, lactic acid 13.1 min, glycerol 13.8 min, acetic acid 15.3 min, ethanol 22.3 min, HMF 30.2 min, and furfural 45.0 min.

[3] = test system: medium toxified to 40/28/55 mM furfural/HMF/acetic acid; details: Saccharomyces cerevisiae, pH 6
yeast [4] = details: prior experience
[5] = 100 mM of the substance in YSC, 250 g/L glucose, 48 h, 30 °C, no K+/pH adjustment
[6] = 100 mM of the substance, plus 50 mM KCl and NH4OH to pH 6

SMILES | ethanol titer [2, 5] [g/L] | ethanol titer [2, 6] [g/L] | effect of KCl alone on ethanol titer ([2]; 100 mM of the substance) | other results
[Ca+2] [Ca^2+] | – | – | – | effect on fermentation (yeast [1]): fermentation-neutral
OCc1ccco1 [FF—OH, 2-furanmethanol] | 35 ± 0.4 | 59 ± 0.5 | improvements intermediate to those with K+/pH together | additional boost of ethanol production by K+/pH adjustment ([2]; 100 mM): 69%; tolerated more than furfural at equimolar concentration (ethanol output) ([2]; 100 mM, FF-OH vs FF, no K+/pH adjustment): 9 ×
O=Cc1ccc(CO)o1 [HMF, 5-hydroxymethyl-furfural] | 34 ± 0.3 | – | – | concentration tolerable by yeast for growth to commence [3]: approximately 1.5 g/L
OCc1ccc(CO)o1 [HMF-OH, furan-2,5-dimethanol] | – | 69 ± 0.6 | improvements intermediate to those with K+/pH together | additional boost of ethanol production by K+/pH adjustment ([2]; 100 mM): 39%; higher ethanol titer than cognate aldehyde ([2]; 100 mM, HMF-OH vs HMF, no K+/pH adjustment): 45%
[K+] [K^+] | – | – | – | concentration up to which effects are fermentation-beneficial (yeast [1]): at least 110 mM
Cl.N [NH4Cl] | – | – | – | concentration tolerated with no detectable changes on ethanol titer (yeast [4]): at least 200 mM
CC(=O)O [acetic acid] | 17 ± 0.1 | 109 ± 0.6 | no amelioration | –
O=Cc1ccco1 [furfural] | 4 ± 0.3 | – | – | –
